Results from ChEMBL document CHEMBL1201862, “PubChem BioAssay data set” (2004).
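How tested: cells in 96-well plates exposed to compound for 48 hours at five concentrations. At the GI50, growth is halved.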 Activity calls are given as the source filed them. Rule as the data show it: active = GI50 up to about 1.1 µM and inactive = higher.

Experiments:
Assay in all cases: NCI-60 cell line screen, 48 h
A498 = tested on: A498
CAKI-1 = tested on: CAKI-1
DU-145 = tested on: DU-145
EKVX = tested on: EKVX
HCT-15 = tested on: HCT-15
HOP-92 = tested on: HOP-92
Hs-578T = tested on: Hs-578T
KM12 = tested on: KM12
LOX IMVI = tested on: LOX IMVI
M14 = tested on: M14
NCI-H23 = tested on: NCI-H23
NCI-H522 = tested on: NCI-H522
OVCAR-3 = tested on: OVCAR-3
OVCAR-8 = tested on: OVCAR-8
RPMI-8226 = tested on: RPMI-8226
RXF 393 = tested on: RXF 393
SK-MEL-5 = tested on: SK-MEL-5
U-251 = tested on: U-251
UACC-62 = tested on: UACC-62
NCI-H460 = tested on: NCI-H460

Row | SMILES | GI50 (A498) | GI50 (CAKI-1) | GI50 (DU-145) | GI50 (EKVX) | GI50 (HCT-15) | GI50 (HOP-92) | GI50 (Hs-578T) | GI50 (KM12) | GI50 (LOX IMVI) | GI50 (M14) | GI50 (NCI-H23) | GI50 (NCI-H522) | GI50 (OVCAR-3) | GI50 (OVCAR-8) | GI50 (RPMI-8226) | GI50 (RXF 393) | GI50 (SK-MEL-5) | GI50 (U-251) | GI50 (UACC-62) | GI50 (NCI-H460)
1 | CC(C)(C)c1cc(Br)c(O)c(CN(Cc2cc(C(C)(C)C)cc(Br)c2O)C2CCCCC2)c1 | 13.5 µM (inactive) | 12.3 µM (inactive) | 13.9 µM (inactive) | 14.8 µM (inactive) | 12.8 µM | 15.5 µM (inactive) | 13.1 µM (inactive) | 14.7 µM (inactive) | 16.3 µM (inactive) | 12.9 µM (inactive) | 13.5 µM (inactive) | 12.6 µM (inactive) | 11.9 µM (inactive) | 15.1 µM (inactive) | 11.8 µM (inactive) | 10.7 µM (inactive) | 10.9 µM (inactive) | 13.9 µM (inactive) | 12.7 µM (inactive) | –
2 | NC(Cc1ccccc1)C(=O)NC(Cc1ccccc1)NC(=O)C(Cc1c[nH]c2ccccc12)C(=O)O (centres undefined) | > 100 µM (inactive) | > 100 µM (inactive) | > 100 µM (inactive) | > 100 µM (inactive) | > 100 µM | 34.8 µM (inactive) | 37.7 µM (inactive) | > 100 µM (inactive) | > 100 µM (inactive) | > 100 µM (inactive) | > 100 µM (inactive) | > 100 µM (inactive) | > 100 µM (inactive) | > 100 µM (inactive) | > 100 µM (inactive) | > 100 µM (inactive) | 12 µM (inactive) | > 100 µM (inactive) | > 100 µM (inactive) | > 100 µM (inactive)
3 | CC(Oc1ccccc1Cl)C(=O)NN1C(=O)CC(=O)N(c2ccccc2)C1=S (centres undefined) | 22.3 µM (inactive) | 41.2 µM (inactive) | 42.9 µM (inactive) | 57.1 µM (inactive) | 38 µM | 20.4 µM (inactive) | > 100 µM (inactive) | 60.1 µM (inactive) | 38.4 µM (inactive) | 59 µM (inactive) | 38.1 µM (inactive) | 37 µM (inactive) | 38 µM (inactive) | 41.4 µM (inactive) | 47.8 µM (inactive) | 32.1 µM (inactive) | 42.8 µM (inactive) | 41 µM (inactive) | 33.3 µM (inactive) | 44.2 µM (inactive)
4 | COc1cccc(/C=C/c2cnc3ccccc3n2)c1OC | 40.4 µM (inactive) | 45.2 µM (inactive) | 60.7 µM (inactive) | 33 µM (inactive) | 27.5 µM | 23.7 µM (inactive) | 19.1 µM (inactive) | 30.8 µM (inactive) | 36.6 µM (inactive) | 46.2 µM (inactive) | 31.9 µM (inactive) | 17 µM (inactive) | 37.2 µM (inactive) | 29.7 µM (inactive) | 41.8 µM (inactive) | 21.8 µM (inactive) | 17.1 µM (inactive) | 39.3 µM (inactive) | 28.4 µM (inactive) | 24.8 µM (inactive)
5 | Clc1nc(Cl)c(-c2ccccc2)c(Cl)n1 | 16.2 µM (inactive) | 1.87 µM (inactive) | 13.5 µM (inactive) | 1.8 µM (inactive) | 2.42 µM | 5.45 µM (inactive) | 3.83 µM (inactive) | 4.68 µM (inactive) | 1.66 µM (inactive) | 1.62 µM (inactive) | 4.51 µM (inactive) | 1.55 µM (inactive) | 3.57 µM (inactive) | 2.75 µM (inactive) | 2.69 µM (inactive) | 2.18 µM (inactive) | 3.18 µM (inactive) | 5.32 µM (inactive) | 3.09 µM (inactive) | 13.4 µM (inactive)
6 | CC[C@@]1(O)C(=O)OCc2c1c(Cl)c1n(c2=O)Cc2cc3ccccc3nc2-1 | 2.18 µM (inactive) | 0.736 µM (active) | 1.92 µM (inactive) | 6.1 µM (inactive) | 7.98 µM | 7.62 µM (inactive) | 31.4 µM (inactive) | 6.38 µM (inactive) | 1.16 µM (inactive) | 2 µM (inactive) | 2.05 µM (inactive) | 1.69 µM (inactive) | 6.35 µM (inactive) | 3.05 µM (inactive) | 1.73 µM (inactive) | 2.52 µM (inactive) | 1.75 µM (inactive) | 1.07 µM (active) | 0.528 µM (active) | 0.383 µM (active)
7 | CCc1c2c([nH]c(=S)c1C#N)CCC2 | > 100 µM (inactive) | > 100 µM (inactive) | > 100 µM (inactive) | 16.9 µM (inactive) | > 100 µM | 2.35 µM (inactive) | > 100 µM (inactive) | > 100 µM (inactive) | > 100 µM (inactive) | > 100 µM (inactive) | > 100 µM (inactive) | > 100 µM (inactive) | > 100 µM (inactive) | > 100 µM (inactive) | > 100 µM (inactive) | > 100 µM (inactive) | > 100 µM (inactive) | > 100 µM (inactive) | > 100 µM (inactive) | > 100 µM (inactive)
